Data reported in paper PMC8026479 (Cancer Chemotherapy and Pharmacology, 2021).
Where two headings read alike, the source gives them in different places.

Columns and labels:
[1] = Study G1T28-02 Part 1 plasma PK (with E/P); assay type: in vivo, human; settings: ES-SCLC + E/P; for Vd: read-out: Vz; for Tmax: range; for AUC: read-out: AUCtau (AUC0-inf, footnote a)
Description: G1T28-02 (NCT02499770) was a multicentre Phase Ib/IIa study in patients with newly diagnosed ES-SCLC [5]. Eligible patients were aged ≥ 18 years and had histologically or cytologically confirmed ES-SCLC, measurable disease per Response Evaluation Criteria in Solid Tumors (RECIST) version 1.1, an Eastern Cooperative Oncology Group (ECOG) performance status of 0–2, and adequate organ function. […] In the dose-finding Part 1 portion, blood samples for PK analysis were collected at prespecified time points on Cycle 1 Day 1 and Cycle 1 Day 3 (200 mg/m^2 cohort: all patients; 240 mg/m^2 cohort: optional).

[2] = Population PK model with allometric scaling of preclinical and human PK data; parameters: species or system mouse, rat, dog; settings: estimated
Description: Owing to the invasive nature of the PD marker collection (i.e. bone marrow aspiration), a semi-mechanistic PK/PD model based on animal PK/PD data and human PK data was developed to guide the selection of an optimal dose level for bone marrow aspiration in humans during dose escalation in the Phase I first-in-human study. The model was constructed using PK data from four species (mouse, rat, dog, and human) and PD data from three species (mouse, rat, and dog; Online Resources 1 and 2).
The model was constructed in two stages. First, preclinical PK data (e.g. doses, routes, and schedule of administration, observed concentrations) were compiled and modeled by allometric scaling. A sequential PK/PD modeling approach (population PK parameters and data approach) was then employed in which a semi-mechanistic PD model with various physiological compartments was created, and specific assumptions entered (Online Resource 3). Traditional forward addition/backward elimination was used for PK modeling. […] Many parameters in this complex model could not be estimated and were fixed either to the literature values or values selected on the basis of discussions with domain experts and sensitivity analysis. In preclinical animal models, the PD analysis modeled bone marrow cells positive for 5′-ethynyl-2′-deoxyuridine (EdU) and peripheral neutrophil counts simultaneously. Although the preclinical animal models could determine the G1 phase, they could not differentiate S, G2, and M phases; cells in these phases will be referred to as “cycling” throughout this manuscript.
Online Resource 1 List of studies used in PK and PD models
Data set Species Administration route Endpoint
BM bone marrow, EdU 5’-ethynyl-2’-deoxyuridine, IP intraperitoneal, IV intravenous, PD pharmacodynamics , PK
pharmacokinetics , PMN polymorphonuclear cell
Online Resource 2 Brief description of animal studies used in PK and PD models
Preclinical pharmacokinetic (PK)/toxicokinetic studies were conducted in mice, rats, and dogs. Data from eight
studies in four species, with a total of 1628 observations from 191 individuals, were used for PK/pharmacodynamic
(PD) modeling. Administration routes included oral, intravenous (IV), and intraperitoneal (IP). The designs of these
studies are described briefly below:
samples were collected from pre dose up to 48 h post dose. In rat toxicology studies, rats received 7-day
PK samples were collected
from pre dose up to 24 h post dose on Day 1 and Day 7.
samples were collected from pre dose up to 30 h post dose.
IV infusion. […]
Online Resource 3 PK/PD model parameters and assumptions
PK model parameters for trilacicliba
Ka (/h) 20.0 (FIXED) Assumptionb
Bioavailability (oral, mouse) 0.62 Estimated
Intercompartment rate constant 15.94 Estimated
Intercompartment clearance K42 0.29 Estimated
Allometric exponent for V 1.00 Estimated
Allometric exponent for CL 1.00 (FIXED) Assumptionc
Additive error 2.00 (FIXED) Assumptiond
Proportional error 0.32 Estimated
PD model parameters for trilaciclib and
Rate constant for BM precursor G 0.04 (FIXED) Assumption e
Rate constant for neutrophils 3.24*E-2 (FIXED) Assumption f
Max effect of G1T28 in the E max 1.00 (FIXED) Assumption g
Concentration of G1T28 with 5.90 Estimated
Feedback slope (/h) 1.00*E-6 (FIXED) Assumptionh
Scale for neutrophils in mice 150 Estimated
Scale for neutrophils in dogs 848 Estimated
EC50 as fraction of baseline value 2.00 Estimated
of persistence effect . Effect is on
transition of S phase cells to G1
Rate constant for stem cell G to 0.51 Estimated
Residual error variance 0.73 Estimated
aPK model parameters for 5 -FU were obtained from the literature
K a could not be estimated and
cThe allometric exponent for CL was estimated to be 0.945 from an earlier model during the model development
process and was fixed to 1 .00 for the purpose of model simplification to avoid overparameterization
dThe additive error was fixed to 20% of the assay LLOQ (10 ng/mL) to decrease the number of parameters to fit […]

[3] = tested on: CD45+/CD3+ lymphocytes; assay: Ex vivo PHA-stimulated lymphocyte proliferation assay (G1T28-1-01); assay type: in vivo; settings: Homo sapiens, 96 mg/m2, 4 h after end of infusion, read-out: maximum mean inhibition of proliferation of CD45+/CD3+ lymphocytes
Experimental: Healthy male and/or female subjects aged 18–60 years, with a body weight of ≥ 50 kg and a body mass index of 18–32 kg/m^2, were enrolled. […] Following a 1-h exposure to EdU, cells were harvested, processed, and analyzed by flow cytometry to measure the percentage of proliferation through EdU + incorporation in CD45 + /CD3 + cells (T lymphocytes).
Two bone marrow samples (one pre-dose and one at 32 h post-dose) were excluded from analysis owing to contamination with peripheral blood. c Relative percentage of total bone marrow cells in the S phase at 24 and 32 h post-trilaciclib dose (n = 10). Data shown are mean ± standard deviation.

[4] = tested on: murine HSCs / total bone marrow cycling cells; parameters: method as in PMID 28446688; settings: mouse, at concentrations giving maximum decrease in total bone marrow cycling cells; cited from earlier work
[5] = 200 mg/m2, Cycle 1 Day 3 (n = 8), mean
[6] = 240 mg/m2, Cycle 1 Day 1 (n = 1)
[7] = human, plasma, intravenous, 200 mg/m2, Cycle 1 Day 1 (n = 8), mean
[8] = human, plasma, intravenous, 200 mg/m2, Cycle 1 Day 3 (n = 8), mean
[9] = human, plasma, intravenous, 240 mg/m2, Cycle 1 Day 1 (n = 1)
[10] = human, plasma, intravenous, 240 mg/m2, Cycle 1 Day 3 (n = 1)

## CN1CCN(c2ccc(Nc3ncc4cc5n(c4n3)C3(CCCCC3)CNC5=O)nc2)CC1 [trilaciclib]
[1]; [5]
  Cmax: 1620 ng/mL
  T1/2: 9.12 h
[1]; [6]
  AUC(0-inf): 2280 ng·h/mL
  Cmax: 1570 ng/mL
[1]; [7]
  clearance: 2500 mL/min
  Vd: 1700 L
[1]; human, plasma, intravenous, 200 mg/m2, Cycle 1 Day 1 (n = 8), mean, read-out: AUC0-inf
  AUC(0-inf): 2560 ng·h/mL
[1]; human, plasma, intravenous, 200 mg/m2, Cycle 1 Day 1 (n = 8), mean, read-out: Cmax
  Cmax: 1240 ng/mL
[1]; human, plasma, intravenous, 200 mg/m2, Cycle 1 Day 1 (n = 8)
  Tmax: 0.45 to 0.98 h
[1]; [8]
  clearance: 2230 mL/min
  AUC: 3110 ng·h/mL
  Vd: 1770 L
[1]; human, plasma, intravenous, 200 mg/m2, Cycle 1 Day 3 (n = 8)
  Tmax: 0.47 to 1 h
[1]; [9]
  clearance: 3850 mL/min
  half-life: 2.91 h
  Vd: 967 L
[1]; [10]
  clearance: 3000 mL/min
  half-life: 4.03 h
  AUC: 2960 ng·h/mL
  Vd: 1050 L
[1]; human, plasma, intravenous, 240 mg/m2, Cycle 1 Day 3 (n = 1), read-out: Cmax
  Cmax: 2260 ng/mL
[2]; 150 mg/kg, oral, mouse
  bioavailability: 62%
[2]
  Intercompartment clearance K24: 2.03 h⁻¹
  Intercompartment clearance K32: 4.42 h⁻¹
  Intercompartment clearance K42: 0.29 h⁻¹
  Intercompartment rate constant K23: 15.94 h⁻¹
[2]; mouse, rat, dog, human, three-compartment model, allometric scaling, read-out: CL, PK model (converted)
  clearance: 46.2 mL/min/kg
[2]; mouse, rat, dog, human, three-compartment model, allometric scaling, read-out: V (central volume of distribution), PK model
  Vd: 1.32 L/kg
[3]
  inhibition at 96 mg/m2: 37.2%
[4]
  HSPCs arrested in the G1 phase: ~100%
